Data published in DBAASP.
Values after ≈ are worked out from the molar mass of the structure shown. One block for each molecule: values may come before it.

Experiments:
Experiment in all cases: ≥ marks a high value that may be exact or a test limit, other limits are often not marked, values filed in µg/mL are converted to µM
[1] = test system: Staphylococcus aureus ATCC 12493
[2] = test system: Candida albicans NCYC 1467
Staphylococcus aureus = test system: Staphylococcus aureus
[3] = test system: Pseudomonas aeruginosa ATCC 27853
[4] = test system: Staphylococcus aureus NCTC 10788
[5] = test system: Enterococcus faecalis NCTC 12697
[6] = test system: Escherichia coli NCTC 10418
[7] = test system: Klebsiella pneumoniae ATCC 43816
[8] = test system: Staphylococcus aureus P1381
[9] = test system: Staphylococcus aureus AB208193
[10] = test system: Escherichia coli ATCC 25922
[11] = test system: Bacillus thuringiensis AB92037
[12] = test system: Staphylococcus aureus P1389
[13] = test system: Micrococcus luteus AB93113
[14] = test system: Pseudomonas aeruginosa ATCC 9027
[15] = test system: Staphylococcus aureus ATCC 6538
[16] = test system: Staphylococcus epidermidis AB208187
Escherichia coli AB94012 = test system: Escherichia coli AB94012
[17] = test system: Staphylococcus aureus ATCC 25923
[18] = test system: Bacillus subtilis AB91021
[19] = test system: Staphylococcus epidermidis AB208188
[20] = test system: Staphylococcus aureus P1374
[21] = test system: Pseudomonas aeruginosa NBRC 13275
[22] = test system: Staphylococcus epidermidis NBRC 12298
[23] = test system: Escherichia coli DH5alpha
[24] = test system: Staphylococcus aureus NBRC 13276
[25] = test system: Salmonella enterica subsp. enterica serovar Typhimurium ATCC 14028
[26] = test system: Staphylococcus aureus 710A
Bacillus megaterium Bm11 = test system: Bacillus megaterium Bm11
Escherichia coli ML-35 = test system: Escherichia coli ML-35
[27] = test system: Escherichia coli DSM 1103
[28] = test system: Acinetobacter baumannii Al1852-ΔLpxD
[29] = test system: Acinetobacter baumannii ATCC 19606
[30] = test system: Acinetobacter baumannii AL1851-ΔLpxA
[31] = test system: Salmonella enterica DSM 17058
[32] = test system: Klebsiella pneumoniae DSM 789
Shigella sonnei DSM 5570 = test system: Shigella sonnei DSM 5570
[33] = test system: Staphylococcus aureus DSM 11729
[34] = test system: Pseudomonas aeruginosa DSM 1117
[35] = test system: Staphylococcus epidermidis DSM 28319
[36] = test system: Citrobacter freundii DSM 30029
[37] = test system: Pseudomonas aeruginosa PAO1
[38] = test system: Pseudomonas aeruginosa PA214
[39] = test system: Pseudomonas aeruginosa PA330
[40] = test system: Pseudomonas aeruginosa PA380
Escherichia coli K-12 = test system: Escherichia coli K-12
[41] = test system: Micrococcus luteus DSM 1790
Escherichia coli BL21AI = test system: Escherichia coli BL21AI

MIC [1]: ≥ 256 µM
MIC [2]: ≥ 64 µM
MIC (Staphylococcus aureus): > 256 µM
MIC [3]: 32 µM (≈ 38.3 µg/mL)
MIC [4]: ≥ 64 µM
MIC [5]: ≥ 256 µM
MIC [6]: 8 µM (≈ 9.58 µg/mL)
MIC [7]: ≥ 256 µM
Structure (SMILES): CC(C)C[C@H](NC(=O)[C@H](C)N)C(=O)N[C@@H](Cc1c[nH]c2ccccc12)C(=O)N[C@@H](CCCCN)C(=O)N[C@@H](CCCCN)C(=O)N[C@@H](CC(C)C)C(=O)N[C@@H](CC(C)C)C(=O)N[C@@H](CCCCN)C(=O)N[C@@H](CCCCN)C(=O)N[C@@H](C)C(N)=O [ALWKKLLKKA]

MIC [8]: 1.5 µM (≈ 3.2 µg/mL)
MIC [9]: 2.9 µM (≈ 6.19 µg/mL)
MIC [10]: 5.9 µM (≈ 12.6 µg/mL)
MIC [11]: 2.9 µM (≈ 6.19 µg/mL)
MIC [12]: 2.9 µM (≈ 6.19 µg/mL)
MIC [13]: 23.4 µM (≈ 50 µg/mL)
MIC [14]: 5.9 µM (≈ 12.6 µg/mL)
MIC [15]: 1.5 µM (≈ 3.2 µg/mL)
MIC [16]: 2.9 µM (≈ 6.19 µg/mL)
MIC (Escherichia coli AB94012): 11.7 µM (≈ 25 µg/mL)
MIC [17]: 2.9 µM (≈ 6.19 µg/mL)
MIC [18]: 2.9 µM (≈ 6.19 µg/mL)
MIC [19]: 2.9 µM (≈ 6.19 µg/mL)
MIC [20]: 2.9 µM (≈ 6.19 µg/mL)
Structure (SMILES): CC[C@H](C)[C@H](NC(=O)[C@H](CCCCN)NC(=O)[C@@H](NC(=O)[C@H](C)NC(=O)[C@H](CC(C)C)NC(=O)[C@H](CCCCN)NC(=O)[C@H](Cc1ccccc1)NC(=O)[C@H](CC(C)C)NC(=O)[C@H](Cc1cnc[nH]1)NC(=O)CNC(=O)[C@H](Cc1ccccc1)NC(=O)[C@@H](N)Cc1ccccc1)[C@@H](C)O)C(=O)N[C@H](C(=O)N1CCC[C@H]1C(=O)N[C@@H](CO)C(=O)N[C@@H](CC(C)C)C(=O)N[C@@H](Cc1ccccc1)C(=O)N[C@@H](CCCN=C(N)N)C(=O)O)[C@@H](C)CC [FFGHLFKLATKIIPSLFR]

MIC [21]: 3.12 µM (≈ 5.73 µg/mL)
MIC [22]: 12.5 µM (≈ 22.9 µg/mL)
MIC [23]: 3.12 µM (≈ 5.73 µg/mL)
MIC [24]: ≥ 50 µM
Structure (SMILES): CC[C@H](C)[C@H](NC(=O)CN)C(=O)NCC(=O)N[C@@H](CCCCN)C(=O)N[C@@H](Cc1ccccc1)C(=O)N[C@@H](CC(C)C)C(=O)N[C@@H](Cc1cnc[nH]1)C(=O)N[C@@H](CO)C(=O)N[C@@H](C)C(=O)N[C@@H](CCCCN)C(=O)N[C@@H](CCCCN)C(=O)N[C@@H](Cc1ccccc1)C(=O)NCC(=O)N[C@@H](CCCCN)C(=O)N[C@@H](C)C(=O)N[C@@H](Cc1ccccc1)C(=O)N[C@H](C(N)=O)C(C)C [GIGKFLHSAKKFGKAFV]

MIC [25]: 2 µM (≈ 4.2 µg/mL)
MIC [3]: 1 µM (≈ 2.1 µg/mL)
MIC [26]: 4 µM (≈ 8.39 µg/mL)
MIC (Bacillus megaterium Bm11): 1 µM (≈ 2.1 µg/mL)
MIC (Escherichia coli ML-35): 1 µM (≈ 2.1 µg/mL)
Structure (SMILES): CC[C@H](C)[C@H](NC(=O)[C@H](CCCCN)NC(=O)[C@H](CCCCN)NC(=O)[C@H](CC(C)C)NC(=O)[C@H](CC(C)C)NC(=O)CN)C(=O)N[C@@H](C)C(=O)N[C@@H](CCCCN)C(=O)N[C@@H](CCCCN)C(=O)N[C@@H](C)C(=O)N[C@@H](CCCCN)C(=O)N[C@@H](CCCCN)C(=O)N[C@@H](C)C(=O)N[C@@H](CC(C)C)C(=O)N[C@@H](CCCCN)C(=O)N[C@@H](CCCCN)C(=O)N[C@@H](CC(C)C)C(=O)NCC(=O)N[C@@H](Cc1ccc(O)cc1)C(N)=O [GLLKKIAKKAKKALKKLGY]

MIC [27]: 0.5 µM (≈ 1.47 µg/mL)
MIC [28]: 0.25 µM (≈ 0.736 µg/mL)
MIC [29]: 0.25 µM (≈ 0.736 µg/mL)
MIC [30]: 0.25 µM (≈ 0.736 µg/mL)
MIC [31]: 2 µM (≈ 5.89 µg/mL)
MIC [32]: 0.25 µM (≈ 0.736 µg/mL)
MIC (Shigella sonnei DSM 5570): 0.25 µM (≈ 0.736 µg/mL)
MIC [33]: ≥ 32 µM
MIC [34]: 1 µM (≈ 2.94 µg/mL)
MIC [35]: 1 µM (≈ 2.94 µg/mL)
MIC [36]: 0.5 µM (≈ 1.47 µg/mL)
Structure (SMILES): CC[C@H](C)[C@H](NC(=O)[C@H](CC(=O)O)NC(=O)[C@H](Cc1c[nH]c2ccccc12)NC(=O)[C@H](CCCCN)NC(=O)[C@@H]1CCCN1C(=O)[C@H](CC(C)C)NC(=O)[C@H](CCSC)NC(=O)[C@H](Cc1ccc(O)cc1)NC(=O)[C@H](CC(C)C)NC(=O)[C@H](CC(N)=O)NC(=O)[C@@H](NC(=O)CNC(=O)[C@H](CCCCN)NC(=O)[C@H](Cc1ccccc1)NC(=O)[C@H](Cc1ccccc1)NC(=O)[C@H](CCCCN)NC(=O)[C@H](Cc1ccccc1)NC(=O)[C@H](Cc1ccccc1)NC(=O)[C@H](CCCCN)NC(=O)[C@H](Cc1ccccc1)NC(=O)[C@H](Cc1ccccc1)NC(=O)[C@@H](N)CCCCN)[C@@H](C)O)C(=O)N1CCC[C@H]1C(N)=O [KFFKFFKFFKGTNLYMLPKWDIP]

MIC [37]: 12.5 µM (≈ 25 µg/mL)
MIC [38]: 6.3 µM (≈ 12.6 µg/mL)
MIC [39]: 12.5 µM (≈ 25 µg/mL)
MIC [40]: ≥ 50 µM
MIC (Escherichia coli K-12): 3.1 µM (≈ 6.21 µg/mL)
Structure (SMILES): CC(C)C[C@H](NC(=O)[C@H](C)NC(=O)[C@H](CCCCN)NC(=O)[C@H](CCCCN)NC(=O)[C@H](CCCCN)NC(=O)[C@H](CCCCN)NC(=O)[C@@H](N)CCCCN)C(=O)N[C@@H](Cc1ccccc1)C(=O)N[C@@H](CC(C)C)C(=O)N[C@@H](CCCCN)C(=O)N[C@@H](CC(C)C)C(=O)N[C@@H](Cc1c[nH]c2ccccc12)C(=O)N[C@@H](C)C(=O)N[C@@H](C)C(=O)N[C@@H](Cc1ccccc1)C(=O)N[C@@H](CC(C)C)C(=O)N[C@@H](C)C(N)=O [KKKKKALFLKLWAAFLA]

MIC [41]: 7.07 µM (≈ 15.6 µg/mL)
MIC (Escherichia coli BL21AI): 7.07 µM (≈ 15.6 µg/mL)
Structure (SMILES): CC[C@H](C)[C@H](NC(=O)[C@H](CCCN=C(N)N)NC(=O)[C@H](CCCN=C(N)N)NC(=O)[C@@H]1CCCN1C(=O)[C@@H]1CCCN1C(=O)[C@H](CCCCN)NC(=O)[C@@H]1CCCN1C(=O)[C@H](CCCN=C(N)N)NC(=O)[C@@H]1CCCN1C(=O)[C@H](CC(C)C)NC(=O)[C@H](Cc1ccc(O)cc1)NC(=O)[C@@H]1CCCN1C(=O)[C@@H]1CCCN1C(=O)[C@H](CCCCN)NC(=O)[C@H](CC(=O)O)NC(=O)[C@@H](N)C(C)C)C(=O)N[C@@H](Cc1ccc(O)cc1)C(=O)N[C@@H](CC(N)=O)C(=O)O [VDKPPYLPRPKPPRRIYN]
